From patent US4454137A, “Feed compositions containing copper salts of 2-hydroxypyridine-N-oxides” (SmithKline Beckman Corporation, priority 1982, dated 1984)
“And” between values parts separate entries of the source, which are not always exact repeats. Identical values can stand only once. Like-named read-outs stand apart in the source and are kept apart here.

Columns and labels:
inoculum (ileal) = experiment: In vitro swine procedure, ileal inoculum incubation (VFA, lysine, glucose, L-lactic acid); design: species or system swine (Yorkshire barrow)
[1] = W. Barker et al., J. Antibiotics 32 1096 (1979); cited from earlier work
post weanling pigs [2] = experiment: Post weanling pig feeding test, corn based pre-starter feed (Example 6); format: in vivo; conditions: 10 ppm; corn ration
Source text: Each replication contained 8 treatment groups in turn comprising 2 pigs per pen.

inoculum (cecal) = experiment: In vitro swine procedure, cecal inoculum incubation (VFA, lysine, glucose, L-lactic acid); design: species or system swine (Yorkshire barrow)
post weanling pigs [3] = experiment: Pig feeding test, corn and rye diets (Example 7); format: in vivo; conditions: 10 ppm
Protocol: Each replication contained 8 treatment groups in turn comprising 2 pigs per pen. The experiment was run similar to that of Example 6 except another control having a rye diet was added.

[4] = ileal, 167 ppm, positive control of run 1(a), DMSO series (carrier not given)

Question: For O=[N+]([O-])c1ccc([O-])[n+]([O-])c1.O=[N+]([O-])c1ccc([O-])[n+]([O-])c1.[Cu+2] [5-Nitro-2-hydroxypyridine-N--oxide, Cu^++], which “LYS (lysine)” value (inoculum (ileal)) is on record?
Answer: 109

Question: What about the “GLU (glucose)” value (inoculum (ileal); ileal, 167 ppm) of the same molecule?
Answer: 110 % of blank control values and 104 % of blank control values

Question: What about the “LAC (L-lactic acid)” value (inoculum (ileal); ileal, 167 ppm) of the same molecule?
Answer: 160 % of blank control values and 106 % of blank control values

Question: And the “LYS (lysine)” value (inoculum (ileal); ileal, 167 ppm)?
Answer: 159 % of blank control values

Question: And the “VFA (total of volatile fatty acids)” value (inoculum (ileal); ileal, 167 ppm)?
Answer: 47 % of blank control values and 48 % of blank control values

Question: What does the source list for O=S(=O)([O-])[O-].[Cu+2] [Copper sulfate]?
Answer: GLU (glucose) (inoculum (ileal); ileal, 3.3 ppm): 109 % of blank control values; LAC (L-lactic acid) (inoculum (ileal); ileal, 3.3 ppm): 113 % of blank control values; LYS (lysine) (inoculum (ileal); ileal, 3.3 ppm): 107 % of blank control values; VFA (total of volatile fatty acids) (inoculum (ileal); ileal, 3.3 ppm): 99 % of blank control values; GLU (glucose) (inoculum (ileal); ileal, 33.3 ppm): 98 % of blank control values; LAC (L-lactic acid) (inoculum (ileal); ileal, 33.3 ppm): 104 % of blank control values; VFA (total of volatile fatty acids) (inoculum (ileal); ileal, 33.3 ppm): 99 % of blank control values; GLU (glucose) (inoculum (ileal); ileal, 333.33 ppm): 113 % of blank control values; LAC (L-lactic acid) (inoculum (ileal); ileal, 333.33 ppm): 137 % of blank control values; LYS (lysine) (inoculum (ileal); ileal, 333.33 ppm): 107 % of blank control values; VFA (total of volatile fatty acids) (inoculum (ileal); ileal, 333.33 ppm): 47 % of blank control values

Question: For COc1ccc(=O)n([O-])c1C.COc1ccc(=O)n([O-])c1C.[Cu+2] [copper salt of 2-hydroxy-5-methoxy-6-methylpyridine-N-oxide], which “antimicrobial activity relative to iron salt and ligand parent” value [1] is on record?
Answer: less antimicrobial activity than does either the corresponding iron salt or the ligand parent

Question: For virginiamycin, which “Average daily gain (0-21 days)” value (post weanling pigs [2]) is on record?
Answer: .667

Question: And the Feed/gain (post weanling pigs [2])?
Answer: 2.56

Question: What about the “Feed/gain, percent in parentheses (control 100%)” value (post weanling pigs [2]) of the same molecule?
Answer: 97.4%

Question: What about the “GLU (glucose)” value (inoculum (ileal); ileal, 167 ppm) of the same molecule?
Answer: 133 % of blank control values

Question: What about the “LAC (L-lactic acid)” value (inoculum (ileal); ileal, 167 ppm) of the same molecule?
Answer: 29 % of blank control values

Question: And the “LYS (lysine)” value (inoculum (ileal); ileal, 167 ppm)?
Answer: 134 % of blank control values

Question: And the “GLU (glucose)” value (inoculum (ileal); [4])?
Answer: 101 % of blank control values

Question: What about the “LAC (L-lactic acid)” value (inoculum (ileal); [4]) of the same molecule?
Answer: 16 % of blank control values

Question: And the “LYS (lysine)” value (inoculum (ileal); [4])?
Answer: 167 % of blank control values

Question: What about the “VFA (total of volatile fatty acids)” value (inoculum (ileal); [4]) of the same molecule?
Answer: 14 % of blank control values

Question: And the “VFA (total of volatile fatty acids)” value (inoculum (cecal))?
Answer: 94

Question: And the “GLU (glucose)” value (inoculum (cecal); cecal, 0.17 ppm)?
Answer: 30 % of blank control values

Question: And the “LYS (lysine)” value (inoculum (cecal); cecal, 0.17 ppm)?
Answer: 71 % of blank control values

Question: What about the “GLU (glucose)” value (inoculum (cecal); cecal, 1.67 ppm) of the same molecule?
Answer: 72 % of blank control values

Question: What about the “LYS (lysine)” value (inoculum (cecal); cecal, 1.67 ppm) of the same molecule?
Answer: 74 % of blank control values

Question: And the “VFA (total of volatile fatty acids)” value (inoculum (cecal); cecal, 1.67 ppm)?
Answer: 100 % of blank control values

Question: And the “GLU (glucose)” value (inoculum (cecal); cecal, 16.67 ppm)?
Answer: 524 % of blank control values

Question: What about the “LAC (L-lactic acid)” value (inoculum (cecal); cecal, 16.67 ppm) of the same molecule?
Answer: 35 % of blank control values

Question: What about the “LYS (lysine)” value (inoculum (cecal); cecal, 16.67 ppm) of the same molecule?
Answer: 107 % of blank control values

Question: What about the “VFA (total of volatile fatty acids)” value (inoculum (cecal); cecal, 16.67 ppm) of the same molecule?
Answer: 83 % of blank control values

Question: And the “GLU (glucose)” value (inoculum (cecal); cecal, 167 ppm)?
Answer: 732 % of blank control values

Question: And the “LAC (L-lactic acid)” value (inoculum (cecal); cecal, 167 ppm)?
Answer: 49 % of blank control values

Question: What about the “LYS (lysine)” value (inoculum (cecal); cecal, 167 ppm) of the same molecule?
Answer: 172 % of blank control values

Question: And the “VFA (total of volatile fatty acids)” value (inoculum (cecal); cecal, 167 ppm)?
Answer: 89 % of blank control values

Question: What about the “Average Daily Gain, 0-23 days” value (post weanling pigs [3]; Vm + Cont. (corn diet)) of the same molecule?
Answer: 0.582 kg

Question: And the “Average Daily Gain, 0-23 days” value (post weanling pigs [3]; Vm + Rye (rye diet))?
Answer: 0.529 kg
